Where two headings read alike, the source gives them in different places.
What was measured:
ALDH1B1 = biological target: T1, ALDH1B1 (Homo sapiens, UniProt P30837); assay: ALDEFLUOR assay of cellular ALDH1B1 activity in ALDH1B1-transfected ALDH1A3−/− A375 cells; format: cell-based; conditions: for IC50: ALDEFLUOR, ALDH1B1-overexpressing ALDH1A3−/− A375 cells, read-out: ALDH1B1(in cellulo) IC50
T1 sequence (P30837 18-517): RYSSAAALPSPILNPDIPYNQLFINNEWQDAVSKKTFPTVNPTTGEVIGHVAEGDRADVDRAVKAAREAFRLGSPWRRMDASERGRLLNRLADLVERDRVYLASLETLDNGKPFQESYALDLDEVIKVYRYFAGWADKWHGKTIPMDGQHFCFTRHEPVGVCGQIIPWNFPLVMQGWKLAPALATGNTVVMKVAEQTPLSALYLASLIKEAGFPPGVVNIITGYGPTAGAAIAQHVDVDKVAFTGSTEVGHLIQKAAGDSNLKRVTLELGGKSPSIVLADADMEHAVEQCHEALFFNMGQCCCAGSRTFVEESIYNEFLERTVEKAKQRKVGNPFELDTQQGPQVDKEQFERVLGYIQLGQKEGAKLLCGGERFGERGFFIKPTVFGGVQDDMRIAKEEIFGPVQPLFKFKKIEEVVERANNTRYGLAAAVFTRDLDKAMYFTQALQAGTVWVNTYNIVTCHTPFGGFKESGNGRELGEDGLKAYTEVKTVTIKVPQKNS
Procedure: ALDH1A3^−/− A375 cells were seeded into a 6-well plate at a density of 5×10^5 cells/well and cultured for 24 h. The cells were then transfected with either pCMV6-entry, pCMV6-GFP (Addgene, plasmid 11153), or pCMV-ALDH1B1. After 24 h, the media was replaced and transfection efficiencies were estimated by the EGFP-positive cells in the pCMV-GFP-transfected well. The cells were cultured for another 24 h and their ALDH activities were quantified using the ALDEFLUOR assay. Briefly, the cells were isolated from the plate with trypsin and resuspended in ALDEFLUOR assay buffer (STEMCELL Technologies) at a concentration of 4×10^5 cells/mL. Each ALDEFLUOR assay used 0.5 mL of this cell suspension, and the cells were treated with individual compounds for 15 min at 37° C. and 5% CO2. The cell suspensions were then treated with 2.5 μL ALDEFLUOR reagent and incubated for an additional 30 min at 37° C. and 5% CO2. The cells were then collected by centrifugation (450×g) for 5 min at room temperature, resuspended in 200 μL assay buffer, and analyzed with an LSR II flow cytometer (BD Biosciences) at the Stanford FACS facility.

SW480 cells (spheroid) = assay: Matrigel spheroid growth / viability assay, SW480; format: cell-based; conditions: for effect on SW480 spheroid formation: 2-μM dose; for GI50: Homo sapiens, SW480, 168 h
Procedure: To prepare Matrigel-coated culture plates, 96-well and 24-well plates were placed on ice and coated with 25 μL or 300 μL, respectively, of Matrigel matrix (Corning, LDEV-free) that had been thawed overnight at 4° C. The plates were then placed in a 37° C. incubator for 30 min to allow the Matrigel to solidify. SW480 or HCT116 cells were suspended in spheroid culture medium (RPMI-1640 containing 20 ng/mL recombinant human epidermal growth factor (Abcam, ab9697), 20 ng/mL recombinant human fibroblast growth factor (BioVision, 4037), 5 μg/mL heparin (Sigma), 1× N-2 supplement (Thermo Fisher Scientific), 100 U/mL penicillin, and 100 μg/mL streptomycin) and then seeded into the 96-well and 24-well Matrigel-coated plates at densities of 1,000 or 5,000 cells/well and total well volumes of […] or 1 mL, respectively. Compounds were diluted in spheroid culture medium and added to the wells, and the spheroid were grown at 37° C. with 5% CO2 for 7 days.
To quantify spheroid growth at the 7-day endpoint, unstained spheroids were imaged with phase-contrast illumination using a Keyence BZ-X710 microscope. Some cultures were also stained with crystal violet to enable brightfield imaging. Briefly, the Matrigel spheroids cultures were treated with PBS containing 0.5% crystal violet and 5% methanol for 15 min at 37° C. and then gently washed 4×5 min with PBS. Spheroid sizes were quantified with ImageJ (Fiji) software using masks created with the default “Threshold” function and foreground/background adjustments to optimize masking fidelity. The full field of view was then selected for “Analyze Particles” analysis, providing numbered list of each spheroid and its area in the micrograph. In the few cases that two adjacent spheroids were treated as one object by the image processing software, their measurements were manually corrected using the “Freehand Selections” tool. To exclude background and debris from dead cells, spheroids with areas less than 500 μm^2 were excluded from the image analyses.
SW480 or HCT116 cells were seeded into regular or Matrigel-coated 96-well plates at a density of 1000 cells/well. The cells were cultured in the corresponding adherent or spheroid culture medium (200 μL/well) containing the designated compounds or an equivalent amount of DMSO vehicle. Each culture was maintained for 7 days, and then cell viabilities were measured using a CellTiter-Glo 3D Cell Viability Assay kit (Promega). Briefly, 100 μL of the culture medium was removed from each well and replaced with 100 μL 3D Cell Assay reagent. The cells in each well were next homogenized by vigorous pipetting, and the plate was incubated for 10 min at room temperature to stabilize the chemiluminescent signal. A 150-μL aliquot from each well was then transferred into a white opaque 96-well assay plate (flat-bottom and non-treated; Corning Costar) and luminescence intensities were measured with a Veritas microplate luminometer (Turner BioSystems).

[1] = Matrigel spheroid culture, 7 days, read-out: Spheroid SW480 GI50

| IC50 (ALDH1B1) [nM] | GI50 (SW480 cells (spheroid); [1]) [nM] | effect on ALDH1B1-dependent ALDEFLUOR signal (cellular ALDH1B1 activity) (ALDH1B1; flow cytometry) | Compound | effect on SW480 spheroid formation (SW480 cells (spheroid)) | GI50 (SW480 cells (spheroid); read-out: Spheroid SW480 GI50 (nM), Matrigel spheroid culture, 7 days) [nM] |
| --- | --- | --- | --- | --- | --- |
| 38 | 820 | – | COc1ccccc1-n1cc(-c2ccc(-c3ccccc3)cc2)[n+]2c1CCCCC2 [Imidazolium 2] | strongly suppressed SW480 spheroid formation | – |
| 35 | 1600 | – | COc1ccccc1C1=CN(c2ccc(-c3ccccc3)cc2)C2=NCCCCN12 [HPI-273] | – | – |
| 22 | 960 | – | COc1ccccc1-c1ccc(-c2cn(-c3ccccc3OC)c3[n+]2CCCCC3)cc1.[Br-] [Imidazolium 8] | strongly suppressed SW480 spheroid formation | – |
| – | – | had no effect | COc1ccccc1-n1cc(-c2ccccn2)[n+]2c1CCCCC2 [Compound 63] | did not impede the growth | – |

| Compound | IC50 (ALDH1B1) [nM] | GI50 (SW480 cells (spheroid); [1]) [nM] | effect on ALDH1B1-dependent ALDEFLUOR signal (cellular ALDH1B1 activity) (ALDH1B1; flow cytometry) | effect on SW480 spheroid formation (SW480 cells (spheroid)) | GI50 (SW480 cells (spheroid); read-out: Spheroid SW480 GI50 (nM), Matrigel spheroid culture, 7 days) [nM] |
| --- | --- | --- | --- | --- | --- |
| COc1ccccc1C1=CN(c2ccc(-c3ccccc3)cc2)C2=NCCCN12 [STL5-T-0002] | 110 | – | – | – | 750 |
